Assay results as given in publication PMC10999543, “Identification of kinase modulators as host-directed therapeutics against intracellular methicillin-resistant Staphylococcus aureus” (Frontiers in Cellular and Infection Microbiology, 2024).
Read-outs that look alike come from different tables or passages of the source.

What was measured:
[1] = system: intracellular MRSA; assay type: cell-based, Staphylococcus aureus; details: for z-scoreMRSA+ mean: mean of 3 replicates; for z-scoreMRSA+ rep 1 / %GFP+ rep 1: replicate 1; for z-scoreMRSA+ rep 2 / %GFP+ rep 2: replicate 2; for z-scoreMRSA+ rep 3 / %GFP+ rep 3: replicate 3
Outline: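 HeLa cells were infected with GFP-expressing MRSA (mean MOI 6.8) for 1 h, treated with 30 µg/ml gentamicin for 15 min, then incubated overnight at 37°C with kinase inhibitors and 5 µg/ml gentamicin. Flow cytometry gave % GFP-positive cells, with cell count as viability. Hits were z-score ≤ -2 (infection) and ≥ -3 (count) versus DMSO.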

[2] = system: HeLa cells; assay: Compound screen by flow cytometry: HeLa cell count as surrogate readout of cell viability (z-scoreHeLa); assay type: cell-based, human; details: for z-scoreHeLa mean: mean of 3 replicates; for z-scoreHeLa rep 1 / cell count rep 1: replicate 1; for z-scoreHeLa rep 2 / cell count rep 2: replicate 2; for z-scoreHeLa rep 3 / cell count rep 3: replicate 3
Outline: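 The viability surrogate was the count of fixed HeLa cells by flow cytometry, converted to z-scores against DMSO controls with values deviating two-fold excluded. Before counting, cells had been infected with MRSA for 1 h and cleared of extracellular bacteria with gentamicin. They were then exposed overnight to kinase inhibitors in triplicate.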

[3] = PKIS compound screen, Yes/No call
[4] = PKIS compound screen, Yes/No call (effect without cell death)
[5] = PKIS compounds raw data, MRSA-infected HeLa cells
[6] = PKIS compounds raw data, HeLa cell count
[7] = PKIS compound screen raw data, MRSA-infected HeLa cells
[8] = PKIS compound screen, MRSA-infected HeLa cells
[9] = PKIS compound screen raw data, HeLa cell count
[10] = PKIS compound screen, HeLa cell count
[11] = Yes/No: effect without cell death
[12] = compound screen, MRSA-infected HeLa cells
[13] = compound screen, HeLa cell count

CN(C)c1cc2c(Nc3ccc4c(cnn4Cc4ccccc4)c3)ncnc2cn1 [GW282974X]
effect [1, 3]: No
hit [1, 4]: No
z-scoreMRSA+ mean ([1]; PKIS compound screen): -0.84
z-scoreMRSA+ rep 1 ([1]; PKIS compound screen): -0.54
z-scoreMRSA+ rep 2 ([1]; PKIS compound screen): -0.77
z-scoreMRSA+ rep 3 ([1]; PKIS compound screen): -1.21
%GFP+ rep 1 [1, 5]: 11.5%
%GFP+ rep 2 [1, 5]: 11.2%
%GFP+ rep 3 [1, 5]: 11.8%
cell death [2, 3]: No
z-scoreHeLa mean ([2]; PKIS compound screen): 1.58
z-scoreHeLa rep 1 ([2]; PKIS compound screen): 0.95
z-scoreHeLa rep 2 ([2]; PKIS compound screen): 1.79
z-scoreHeLa rep 3 ([2]; PKIS compound screen): 2.01
cell count rep 1 [2, 6]: 5822
cell count rep 2 [2, 6]: 6633
cell count rep 3 [2, 6]: 11155

COc1cc2ncn(-c3cc(OCc4ccccc4C(F)(F)F)c(C(=O)N(C)C)s3)c2cc1OC [GSK1030062A]
%GFP+ rep 1 [1, 7]: 17.3%
%GFP+ rep 2 [1, 7]: 19.4%
%GFP+ rep 3 [1, 7]: 19.3%
z-scoreMRSA+ mean [1, 8]: -0.02
z-scoreMRSA+ rep 1 [1, 8]: -0.18
z-scoreMRSA+ rep 2 [1, 8]: 0.26
z-scoreMRSA+ rep 3 [1, 8]: -0.15
hit [1, 4]: No
effect ([1]; PKIS compound screen, Yes/No call on z-scoreMRSA+): No
cell count rep 1 [2, 9]: 10049
cell count rep 2 [2, 9]: 31389
cell count rep 3 [2, 9]: 32107
z-scoreHeLa mean [2, 10]: -1.17
z-scoreHeLa rep 1 [2, 10]: -1.53
z-scoreHeLa rep 2 [2, 10]: -0.63
z-scoreHeLa rep 3 [2, 10]: -1.34
cell death ([2]; PKIS compound screen, Yes/No call on z-scoreHeLa): No

Cc1n[nH]c2cc(Nc3ccnc(Nc4cccc(CN5CCOCC5)c4)n3)ccc12 [GW682569X]
%GFP+ rep 1 [1, 5]: 15.4%
%GFP+ rep 2 [1, 5]: 15.0%
%GFP+ rep 3 [1, 5]: 13.7%
effect ([1]; Yes/No call from z-scoreMRSA+): No
hit [1, 11]: No
z-scoreMRSA+ mean [1, 12]: 0.19
z-scoreMRSA+ rep 1 [1, 12]: 0.71
z-scoreMRSA+ rep 2 [1, 12]: 0.50
z-scoreMRSA+ rep 3 [1, 12]: -0.65
cell count rep 1 [2, 6]: 2071
cell count rep 2 [2, 6]: 1754
cell count rep 3 [2, 6]: 4807
cell death ([2]; Yes/No call from z-scoreHeLa): No
z-scoreHeLa mean [2, 13]: -1.79
z-scoreHeLa rep 1 [2, 13]: -2.45
z-scoreHeLa rep 2 [2, 13]: -1.90
z-scoreHeLa rep 3 [2, 13]: -1.03

CC(C)c1ccc2c(c1)NC(=O)C2=NNc1ccc(S(N)(=O)=O)cc1 [GW300653X]
%GFP+ rep 1 [1, 5]: 12.5%
%GFP+ rep 2 [1, 5]: 13.7%
%GFP+ rep 3 [1, 5]: 13.3%
effect ([1]; Yes/No call from z-scoreMRSA+): No
hit [1, 11]: No
z-scoreMRSA+ mean [1, 12]: -0.30
z-scoreMRSA+ rep 1 [1, 12]: -0.21
z-scoreMRSA+ rep 2 [1, 12]: 0.07
z-scoreMRSA+ rep 3 [1, 12]: -0.77
cell count rep 1 [2, 6]: 3693
cell count rep 2 [2, 6]: 3535
cell count rep 3 [2, 6]: 5783
cell death ([2]; Yes/No call from z-scoreHeLa): No
z-scoreHeLa mean [2, 13]: -0.70
z-scoreHeLa rep 1 [2, 13]: -0.98
z-scoreHeLa rep 2 [2, 13]: -0.55
z-scoreHeLa rep 3 [2, 13]: -0.56

COc1ccc(Nc2nccc(NCCNC(=O)Nc3ccccc3F)n2)cc1 [GSK1379901A]
%GFP+ rep 1 [1, 7]: 25.4%
%GFP+ rep 2 [1, 7]: 21.0%
%GFP+ rep 3 [1, 7]: 21.4%
effect ([1]; Yes/No call from z-scoreMRSA+): No
hit [1, 11]: No
z-scoreMRSA+ mean [1, 12]: -0.20
z-scoreMRSA+ rep 1 [1, 12]: 0.03
z-scoreMRSA+ rep 2 [1, 12]: -0.39
z-scoreMRSA+ rep 3 [1, 12]: -0.24
cell count rep 1 [2, 9]: 4960
cell count rep 2 [2, 9]: 3999
cell count rep 3 [2, 9]: 4730
cell death ([2]; Yes/No call from z-scoreHeLa): No
z-scoreHeLa mean [2, 13]: -0.04
z-scoreHeLa rep 1 [2, 13]: 0.44
z-scoreHeLa rep 2 [2, 13]: -0.23
z-scoreHeLa rep 3 [2, 13]: -0.32

Fc1cc(Cl)ccc1Nc1ccnc2cc(I)ccc12 [GW551191X]
%GFP+ rep 1 [1, 7]: 27.7%
%GFP+ rep 2 [1, 7]: 23.2%
%GFP+ rep 3 [1, 7]: 23.8%
effect ([1]; Yes/No call from z-scoreMRSA+): No
hit [1, 11]: No
z-scoreMRSA+ mean [1, 12]: 0.40
z-scoreMRSA+ rep 1 [1, 12]: 0.57
z-scoreMRSA+ rep 2 [1, 12]: 0.14
z-scoreMRSA+ rep 3 [1, 12]: 0.48
cell count rep 1 [2, 9]: 6255
cell count rep 2 [2, 9]: 4849
cell count rep 3 [2, 9]: 6828
cell death ([2]; Yes/No call from z-scoreHeLa): No
z-scoreHeLa mean [2, 13]: 0.93
z-scoreHeLa rep 1 [2, 13]: 1.37
z-scoreHeLa rep 2 [2, 13]: 0.42
z-scoreHeLa rep 3 [2, 13]: 1.00
